Results published in patent US20230256102A1, “COMPOSITES AND USES THEREOF” (YISSUM RESEARCH DEVELOPMENT COMPANY OF THE HEBREW …, priority 2019, published 2023).
Square brackets hold non-standard residues; d marks the D form. Peptide text beside a SMILES is read from it. * marks the point of attachment. Palmitoyl = CCCCCCCCCCCCCCCC(=O)*

Key:
[1] = system: Xanthomonas campestris pv. campestris (Xcc) ATCC 33913; experiment: Minimal inhibitory concentration (MIC) assay; type: cell-based; settings: for Average MIC / MIC value: 24 h, 28° C.; for Average MIC: ND = non-detected at tested concentrations (up to 200 μg/ml); for inhibitory activity in MIC assay (in words): highest concentration tested 200 μg/ml
Protocol: Bacterial strains and growth conditions: The bacterial strains used in this study are detailed in Table 2. Unless stated otherwise, all strains were grown on nutrient agar (NA, Difco) or nutrient broth (NB, Difco), except Pst that was grown on Kings B agar plates and NB. All strains were grown at 28° C. for 48 h. All bacterial cells used in this study were stored in 25% glycerol at −80° C.
Minimal inhibitory concentration (MIC) assay: MIC values were determined by broth microdilution in sterile 96-flat bottom well plates (Corning 3650) as described by Hayouka et al. (2013). Briefly, Xcc cells were grown for 24 h in NB at 28° C., with shaking (180 rpm) and re-suspended in fresh NB to reach an OD600 nm of 0.1 (˜10^8 CFU/ml) that was measured using a Genesys 10 uv spectrophotometer (ThermoSpectronic). One hundred microliter-aliquots of Xcc cells were added to 100 μl of NB medium containing peptides/lipopeptides at various concentrations. Bacterial growth was determined after incubation of 24 h at 28° C. by measurement of the optical density (OD595 nm), using a Tecan infinite Pro Plate reader. […] The highest concentration tested was 200 μg/ml. Each experiment was carried out at least three times, with three replicates per strain/concentration combination in each experiment.

MRSA cells = experiment: Mixing leucine-lysine random peptide mixtures and copper ions assay; type: cell-based, Staphylococcus aureus; settings: 400 ppm copper sulfate, 6 hours
Protocol: Mixing Leucine-Lysine random peptide mixtures and copper ions assay: MRSA cells were grown as described in order to prepare a bacterial suspension with O.D.600 nm of 0.1. […] After mixing by vortex, a 1 mL sample was taken for O.D. measurement and the remaining 1 mL sample was incubated for 6 hours at 37° C., 100 RPM. After this time, the O.D. was re-measured and the percentage growth was calculated according to the equation: […]

Compound | Average MIC [1] | also measured
CCCCCCCCCCCCCCCC(=O)N[C@H](CCCCN)C(=O)N[C@@H](Cc1ccccc1)C(=O)N[C@H](CCCCN)C(=O)N[C@H](CCCCN)C(=O)N[C@H](CCCCN)C(N)=O [lipopeptide #5, p-kFkkk] (Palmitoyl-[dK]F[dK][dK][dK]-NH2) | 6 mg/L | –
p-FFkkF [lipopeptide #22] | – | inhibitory activity in MIC assay (in words) [1]: no inhibitory activity
CCCCCCCCCCCCCCCC(=O)N[C@H](CCCCN)C(=O)N[C@H](CCCCN)C(=O)N[C@H](CCCCN)C(=O)N[C@@H](Cc1ccccc1)C(=O)N[C@@H](Cc1ccccc1)C(N)=O [lipopeptide #7, p-kkkFF] (Palmitoyl-[dK][dK][dK]FF-NH2) | 14 mg/L | –
p-FkFFk [lipopeptide #24] | – | inhibitory activity in MIC assay (in words) [1]: no inhibitory activity
CCCCCCCCCCCCCCCC(=O)N[C@H](CCCCN)C(=O)N[C@@H](Cc1ccccc1)C(=O)N[C@@H](Cc1ccccc1)C(=O)N[C@H](CCCCN)C(=O)N[C@@H](Cc1ccccc1)C(N)=O [lipopeptide #20, p-kFFkF] (Palmitoyl-[dK]FF[dK]F-NH2) | 100 mg/L | –
CCCCCCCCCCCCCCCC(=O)N[C@H](CCCCN)C(=O)N[C@H](CCCCN)C(=O)N[C@@H](Cc1ccccc1)C(=O)N[C@@H](Cc1ccccc1)C(=O)N[C@H](CCCCN)C(N)=O [lipopeptide #11, p-kkFFk] (Palmitoyl-[dK][dK]FF[dK]-NH2) | 6 mg/L | –
p-FFkFk [lipopeptide #25] | – | inhibitory activity in MIC assay (in words) [1]: no inhibitory activity
CCCCCCCCCCCCCCCC(=O)N[C@@H](Cc1ccccc1)C(=O)N[C@@H](Cc1ccccc1)C(=O)N[C@H](CCCCN)C(=O)N[C@H](CCCCN)C(=O)N[C@H](CCCCN)C(N)=O [lipopeptide #16, p-FFkkk] (Palmitoyl-FF[dK][dK][dK]-NH2) | – | MIC value [1]: 50 mg/L
CCCCCCCCCCCCCCCC(=O)N[C@@H](Cc1ccccc1)C(=O)N[C@H](CCCCN)C(=O)N[C@H](CCCCN)C(=O)N[C@H](CCCCN)C(=O)N[C@@H](Cc1ccccc1)C(N)=O [lipopeptide #10, p-FkkkF] (Palmitoyl-F[dK][dK][dK]F-NH2) | 6 mg/L | –
CCCCCCCCCCCCCCCC(=O)N[C@H](CCCCN)C(=O)N[C@@H](Cc1ccccc1)C(=O)N[C@@H](Cc1ccccc1)C(=O)N[C@@H](Cc1ccccc1)C(=O)N[C@H](CCCCN)C(N)=O [lipopeptide #23, p-kFFFk] (Palmitoyl-[dK]FFF[dK]-NH2) | 100 mg/L | –
CCCCCCCCCCCCCCCC(=O)N[C@@H](Cc1ccccc1)C(=O)N[C@H](CCCCN)C(=O)N[C@H](CCCCN)C(=O)N[C@@H](Cc1ccccc1)C(=O)N[C@H](CCCCN)C(N)=O [lipopeptide #13, p-FkkFk] (Palmitoyl-F[dK][dK]F[dK]-NH2) | 6 mg/L | –
CCCCCCCCCCCCCCCC(=O)N[C@H](CCCCN)C(=O)N[C@H](CCCCN)C(=O)N[C@@H](Cc1ccccc1)C(=O)N[C@H](CCCCN)C(=O)N[C@@H](Cc1ccccc1)C(N)=O [lipopeptide #8, p-kkFkF] (Palmitoyl-[dK][dK]F[dK]F-NH2) | 6 mg/L | –
p-FFFkk [lipopeptide #26] | – | inhibitory activity in MIC assay (in words) [1]: not active
CCCCCCCCCCCCCCCC(=O)N[C@H](CCCCN)C(=O)N[C@H](CCCCN)C(=O)N[C@@H](Cc1ccccc1)C(=O)N[C@@H](Cc1ccccc1)C(=O)N[C@@H](Cc1ccccc1)C(N)=O [lipopeptide #17, p-kkFFF] (Palmitoyl-[dK][dK]FFF-NH2) | 50 mg/L | –
CCCCCCCCCCCCCCCC(=O)N[C@H](CCCCN)C(=O)N[C@H](CCCCN)C(=O)N[C@H](CCCCN)C(=O)N[C@H](CCCCN)C(=O)N[C@H](CCCCN)C(N)=O [lipopeptide #1, p-kkkkk] (Palmitoyl-[dK][dK][dK][dK][dK]-NH2) | 6 mg/L | –
CCCCCCCCCCCCCCCC(=O)N[C@H](CCCCN)C(=O)N[C@@H](Cc1ccccc1)C(=O)N[C@H](CCCCN)C(=O)N[C@@H](Cc1ccccc1)C(=O)N[C@@H](Cc1ccccc1)C(N)=O [lipopeptide #18, p-kFkFF] (Palmitoyl-[dK]F[dK]FF-NH2) | 50 mg/L | –
O=S(=O)([O-])[O-].[Cu+2] [copper sulfate] | – | growth of MRSA lower than the control (MRSA cells): ~15%
CCCCCCCCCCCCCCCC(=O)N[C@H](CCCCN)C(=O)N[C@H](CCCCN)C(=O)N[C@@H](Cc1ccccc1)C(=O)N[C@H](CCCCN)C(=O)N[C@H](CCCCN)C(N)=O [lipopeptide #4, p-kkFkk] (Palmitoyl-[dK][dK]F[dK][dK]-NH2) | 6 mg/L | –
CCCCCCCCCCCCCCCC(=O)N[C@@H](Cc1ccccc1)C(=O)N[C@H](CCCCN)C(=O)N[C@@H](Cc1ccccc1)C(=O)N[C@H](CCCCN)C(=O)N[C@@H](Cc1ccccc1)C(N)=O [lipopeptide #21, p-FkFkF] (Palmitoyl-F[dK]F[dK]F-NH2) | 38 mg/L | –
CCCCCCCCCCCCCCCC(=O)N[C@H](CCCCN)C(=O)N[C@@H](Cc1ccccc1)C(=O)N[C@H](CCCCN)C(=O)N[C@H](CCCCN)C(=O)N[C@@H](Cc1ccccc1)C(N)=O [lipopeptide #9, p-kFkkF] (Palmitoyl-[dK]F[dK][dK]F-NH2) | 5 mg/L | –
CCCCCCCCCCCCCCCC(=O)N[C@@H](Cc1ccccc1)C(=O)N[C@H](CCCCN)C(=O)N[C@@H](Cc1ccccc1)C(=O)N[C@H](CCCCN)C(=O)N[C@H](CCCCN)C(N)=O [lipopeptide #15, p-FkFkk] (Palmitoyl-F[dK]F[dK][dK]-NH2) | 10 mg/L | –
CCCCCCCCCCCCCCCC(=O)N[C@@H](Cc1ccccc1)C(=O)N[C@H](CCCCN)C(=O)N[C@H](CCCCN)C(=O)N[C@H](CCCCN)C(=O)N[C@H](CCCCN)C(N)=O [lipopeptide #6, p-Fkkkk] (Palmitoyl-F[dK][dK][dK][dK]-NH2) | – | MIC value [1]: 12 mg/L
CCCCCCCCCCCCCCCC(=O)N[C@H](CCCCN)C(=O)N[C@H](CCCCN)C(=O)N[C@H](CCCCN)C(=O)N[C@H](CCCCN)C(=O)N[C@@H](Cc1ccccc1)C(N)=O [lipopeptide #2, p-kkkkF] (Palmitoyl-[dK][dK][dK][dK]F-NH2) | 6 mg/L | –
CCCCCCCCCCCCCCCC(=O)N[C@@H](Cc1ccccc1)C(=O)N[C@H](CCCCN)C(=O)N[C@H](CCCCN)C(=O)N[C@@H](Cc1ccccc1)C(=O)N[C@@H](Cc1ccccc1)C(N)=O [lipopeptide #19, p-FkkFF] (Palmitoyl-F[dK][dK]FF-NH2) | – | MIC value [1]: 38 mg/L
CCCCCCCCCCCCCCCC(=O)N[C@H](CCCCN)C(=O)N[C@@H](Cc1ccccc1)C(=O)N[C@H](CCCCN)C(=O)N[C@@H](Cc1ccccc1)C(=O)N[C@H](CCCCN)C(N)=O [lipopeptide #12, p-kFkFk] (Palmitoyl-[dK]F[dK]F[dK]-NH2) | 12 mg/L | –
CCCCCCCCCCCCCCCC(=O)N[C@H](CCCCN)C(=O)N[C@@H](Cc1ccccc1)C(=O)N[C@@H](Cc1ccccc1)C(=O)N[C@H](CCCCN)C(=O)N[C@H](CCCCN)C(N)=O [lipopeptide #14, p-kFFkk] (Palmitoyl-[dK]FF[dK][dK]-NH2) | 8 mg/L | –
CCCCCCCCCCCCCCCC(=O)N[C@H](CCCCN)C(=O)N[C@H](CCCCN)C(=O)N[C@H](CCCCN)C(=O)N[C@@H](Cc1ccccc1)C(=O)N[C@H](CCCCN)C(N)=O [lipopeptide #3, p-kkkFk] (Palmitoyl-[dK][dK][dK]F[dK]-NH2) | 4 mg/L | –
